Molecules are shown by their SMILES.

Assay [1] concerns Mycosphaerella graminicola (Septoria tritici). Description: Mycosphaerella graminicola (Septoria tritici) / liquid culture (Septoria blotch). The format is cell-based. To be noted: Zymoseptoria tritici, growth inhibition photometrically 4-5 days after application, read-out: control of Mycosphaerella graminicola. The procedure:
Example B16: Mycosphaerella graminicola (Septoria tritici)/Liquid Culture (Septoria Blotch) Conidia of the fungus from cryogenic storage are directly mixed into nutrient broth (PDB potato dextrose broth). After placing a (DMSO) solution of test compound into a microtiter plate (96-well format), the nutrient broth containing the fungal spores is added. The test plates are incubated at 24° C. and the inhibition of growth is determined photometrically 4-5 days after application.

The test system of assay [2] is Monographella nivalis (Microdochium nivale). The assay can be described thus: Monographella nivalis (Microdochium nivale) / liquid culture (foot rot cereals). To be noted: growth inhibition photometrically 4-5 days after application, read-out: control of Monographella nivalis. The format is cell-based. The method, then:
Example B9: Monographella nivalis (Microdochium nivale)/Liquid Culture (Foot Rot Cereals) Conidia of the fungus from cryogenic storage are directly mixed into nutrient broth (PDB potato dextrose broth). After placing a (DMSO) solution of test compound into a microtiter plate (96-well format), the nutrient broth containing the fungal spores is added. The test plates are incubated at 24° C. and the inhibition of growth is determined photometrically 4-5 days after application.

The test system of assay [3] is Botryotinia fuckeliana (Botrytis cinerea). Description: Botryotinia fuckeliana (Botrytis cinerea) / liquid culture (gray mould). The format is cell-based. The settings on record: growth inhibition photometrically 3-4 days after application, read-out: control of Botryotinia fuckeliana. The procedure: Example B2: Botryotinia fuckeliana (Botrytis cinerea)/Liquid Culture (Gray Mould) Conidia of the fungus from cryogenic storage are directly mixed into nutrient broth (Vogels broth). After placing a (DMSO) solution of test compound into a microtiter plate (96-well format), the nutrient broth containing the fungal spores is added. The test plates are incubated at 24° C. and the inhibition of growth is determined photometrically 3-4 days after application.

The subject of the next assay is Pyrenophora teres. Description: Pyrenophora teres / barley / leaf disc preventative (net blotch). Format: in vivo. The settings on record: foliar, barley leaf segments, inoculated 2 days after application. The procedure:
Example B14: Pyrenophora teres/Barley/Leaf Disc Preventative (Net Blotch) Barley leaf segments cv. Hasso are placed on agar in a multiwell plate (24-well format) and sprayed with the formulated test compound diluted in water. The leaf segments are inoculated with a spore suspension of the fungus 2 days after application. The inoculated leaf segments are incubated at 20° C. and 65% rh under a light regime of 12 h light/12 h darkness in a climate cabinet and the activity of a compound is assessed as disease control compared to untreated when an appropriate level of disease damage appears in untreated check leaf segments (5-7 days after application).

Assay [4] relates to Glomerella lagenarium (Colletotrichum lagenarium). The assay can be described thus: Glomerella lagenarium (Colletotrichum lagenarium) / liquid culture (anthracnose). Format: cell-based. The settings on record: Colletotrichum orbiculare, growth inhibition photometrically 3-4 days after application, read-out: control of Glomerella lagenarium. The method, then: Example B3: Glomerella lagenarium (Colletotrichum lagenarium)/Liquid Culture (Anthracnose) Conidia of the fungus from cryogenic storage are directly mixed into nutrient broth (PDB potato dextrose broth). After placing a (DMSO) solution of test compound into a microtiter plate (96-well format), the nutrient broth containing the fungal spores is added. The test plates are incubated at 24° C. and the inhibition of growth is measured photometrically 3-4 days after application.

In the case of `COc1ncc(-c2cccc(C(C)(CNC(=O)c3cc(-c4ccc(F)cc4F)on3)c3cnn(C)c3)n2)c(OC)n1` (stereo not shown) [Compound P-88, 5-(2,4-difluorophenyl)-N-[2-[6-(2,4-dimethoxypyrimidin-5-yl)-2-pyridyl]-2-(1-methylpyrazol-4-yl)propyl]isoxazole-3-carboxamide], the inhibition of growth at 20 ppm in assay [1], in assay [2] and in assay [3] was at least 80% throughout.

As to `Cn1cc(C(C)(CNC(=O)c2cc(-c3ccc(F)cc3F)on2)c2ncccc2Cl)cn1` (stereo not shown) [Compound P-2, N-[2-(3-chloro-2-pyridyl)-2-(1-methylpyrazol-4-yl)propyl]-5-(2,4-difluorophenyl) isoxazole-3-carboxamide], the pest or weed control – broadly, how far the test organism was held down – at 200 ppm with Pyrenophora teres is at least 80%. The inhibition of growth at 20 ppm in assay [1], in assay [2] and in assay [3] was at least 80% each time.

In the case of `COc1cc(Cl)nc([C@](C)(CNC(=O)c2cc(-c3ccc(F)cc3F)no2)c2cnn(C)c2)c1` [Compound P-47, N-[(2S)-2-(6-chloro-4-methoxy-2-pyridyl)-2-(1-methylpyrazol-4-yl)propyl]-3-(2,4-difluorophenyl) isoxazole-5-carboxamide], the inhibition of growth at 20 ppm in assay [1], in assay [2] and in assay [3] was at least 80% in each case.

Consider `CNC(=O)c1cccc(C(C)(CNC(=O)c2cc(-c3ccc(F)cc3F)on2)c2cnn(C)c2)n1` (stereo not shown) [Compound P-45, 5-(2,4-difluorophenyl)-N-[2-[6-(methylcarbamoyl)-2-pyridyl]-2-(1-methylpyrazol-4-lyl)propyl]isoxazole-3-carboxamide], for which the pest or weed control at 200 ppm with Pyrenophora teres is at least 80%.

As to `COC(=O)c1ccc(C(C)(CNC(=O)c2cc(-c3ccc(F)cc3F)on2)c2cnn(C)c2)nc1` (stereo not shown) [Compound P-55, methyl 6-[2-[[5-(2,4-difluorophenyl)isoxazole-3-carbonyl]amino]-1-methyl-1-(1-methylpyrazol-4-yl)ethyl]pyridine-3-carboxylate], the inhibition of growth at 20 ppm in assay [4], in assay [1], in assay [2] and in assay [3] was at least 80% each time.

Take `Cn1cc(C(C)(CNC(=O)c2cc(-c3ccc(F)cc3F)on2)c2ccc(Cl)cn2)cn1` (stereo not shown) [Compound P-20, N-[2-(5-chloro-2-pyridyl)-2-(1-methylpyrazol-4-yl)propyl]-5-(2,4-difluorophenyl) isoxazole-3-carboxamide]: the inhibition of growth at 20 ppm in assay [4], in assay [1] and in assay [2] was at least 80% each time. The same compound returned a pest or weed control at 200 ppm in the assay with Pyrenophora teres of at least 80%.

Compound `Cn1cc(C(C)(CNC(=O)c2cc(-c3ccc(F)cc3F)on2)c2ncccc2Br)cn1` (stereo not shown) [Compound P-53, N-[2-(3-bromo-2-pyridyl)-2-(1-methylpyrazol-4-yl)propyl]-5-(2,4-difluorophenyl) isoxazole-3-carboxamide] had a pest or weed control at 200 ppm in the assay with Pyrenophora teres of at least 80%. In assay [2], the inhibition of growth at 20 ppm is at least 80%.

For the compound `CC(=O)c1ccc(C(C)(CNC(=O)c2cc(-c3ccc(F)cc3F)on2)c2cnn(C)c2)nc1` (stereo not shown) [Compound P-57, N-[2-(5-acetyl-2-pyridyl)-2-(1-methylpyrazol-4-yl)propyl]-5-(2,4-difluorophenyl) isoxazole-3-carboxamide], the inhibition of growth at 20 ppm in assay [4], in assay [1] and in assay [2] was at least 80% each time.

As to `Cn1cc(C(C)(CNC(=O)c2cc(-c3ccc(F)cc3F)on2)c2cc(O)cc(Cl)n2)cn1` (stereo not shown) [Compound P-38, N-[2-(6-chloro-4-hydroxy-2-pyridyl)-2-(1-methylpyrazol-4-yl)propyl]-5-(2,4-difluorophenyl) isoxazole-3-carboxamide], the inhibition of growth at 20 ppm in assay [1] and in assay [3] was at least 80% each time.

Consider `Cc1cc(-c2cccc(C(C)(CNC(=O)c3cc(-c4ccc(F)cc4F)on3)c3cnn(C)c3)n2)ccn1` (stereo not shown) [Compound P-89, 5-(2,4-difluorophenyl)-N-[2-(1-methylpyrazol-4-yl)-2-[6-(2-methyl-4-pyridyl)-2-pyridyl]propyl] isoxazole-3-carboxamide], for which the inhibition of growth at 20 ppm in assay [1] and in assay [2] was at least 80% in each case.

`Cn1cc(C(C)(CNC(=O)c2cc(-c3ccc(F)cc3F)on2)c2cc(C#N)cc(Cl)n2)cn1` (stereo not shown) [Compound P-41, N-[2-(6-chloro-4-cyano-2-pyridyl)-2-(1-methylpyrazol-4-yl)propyl]-5-(2,4-difluorophenyl) isoxazole-3-carboxamide]: the inhibition of growth at 20 ppm in assay [1] and in assay [3] was at least 80% each time.

In the assay on Pyrenophora teres, `CCS(=O)(=O)c1cccc(C(C)(CNC(=O)c2nnc(-c3ccc(F)cc3F)s2)c2cnn(C)c2)n1` (stereo not shown) [Compound P-3, 5-(2,4-difluorophenyl)-N-[2-(6-ethylsulfonyl-2-pyridyl)-2-(1-methylpyrazol-4-yl)propyl]-1,3,4-thiadiazole-2-carboxamide] yielded a pest or weed control at 200 ppm of at least 80%.

Turning to `Cn1cc(C(CNC(=O)c2cc(-c3ccc(F)cc3F)on2)c2cccc(Cl)n2)cn1` (stereo not shown) [Compound P-13, N-[2-(6-chloro-2-pyridyl)-2-(1-methylpyrazol-4-yl)ethyl]-5-(2,4-difluorophenyl)isoxazole-3-carboxamide], the inhibition of growth at 20 ppm in assay [1], in assay [2] and in assay [3] was at least 80% in each case.

Regarding `COc1cc(C#N)nc(C(C)(CNC(=O)c2cc(-c3ccc(F)cc3F)on2)c2cnn(C)c2)c1` (stereo not shown) [Compound P-67, N-[2-(6-cyano-4-methoxy-2-pyridyl)-2-(1-methylpyrazol-4-yl)propyl]-5-(2,4-difluorophenyl) isoxazole-3-carboxamide], the inhibition of growth at 20 ppm in assay [1] and in assay [2] was at least 80% each time.

`CNC(=O)c1ccc(C(C)(CNC(=O)c2cc(-c3ccc(F)cc3F)on2)c2cnn(C)c2)nc1` (stereo not shown) [Compound P-56, 5-(2,4-difluorophenyl)-N-[2-[5-(methylcarbamoyl)-2-pyridyl]-2-(1-methylpyrazol-4-yl)propyl]isoxazole-3-carboxamide] returned a pest or weed control at 200 ppm in the assay with Pyrenophora teres of at least 80%.

`Cn1cc(C(C)(CNC(=O)c2cc(-c3ccc(F)cc3F)on2)c2ccc(Br)cn2)cn1` (stereo not shown) [Compound P-33, N-[2-(5-bromo-2-pyridyl)-2-(1-methylpyrazol-4-yl)propyl]-5-(2,4-difluorophenyl) isoxazole-3-carboxamide]: the inhibition of growth at 20 ppm in assay [4], in assay [1] and in assay [2] was at least 80% each time.

Turning to `Cn1cc(C(C)(CNC(=O)c2cc(-c3ccc(F)cc3F)on2)c2cccc(C3(C#N)CC3)n2)cn1` (stereo not shown) [Compound P-104, N-[2-[6-(1-cyanocyclopropyl)-2-pyridyl]-2-(1-methylpyrazol-4-yl)propyl]-5-(2,4-difluorophenyl) isoxazole-3-carboxamide], the inhibition of growth at 20 ppm in assay [1] and in assay [2] was at least 80% each time.

Consider `CC(=O)Nc1cccc(C(C)(CNC(=O)c2cc(-c3ccc(F)cc3F)on2)c2cnn(C)c2)n1` (stereo not shown) [Compound P-52, N-[2-(6-acetamido-2-pyridyl)-2-(1-methylpyrazol-4-yl)propyl]-5-(2,4-difluorophenyl) isoxazole-3-carboxamide], for which the pest or weed control at 200 ppm with Pyrenophora teres is at least 80%.

On to `Cn1cc(C(C)(CNC(=O)c2cc(-c3ccc(Cl)cc3Cl)on2)c2cccc(Cl)n2)cn1` (stereo not shown) [Compound P-28], for which the inhibition of growth at 20 ppm in assay [4], in assay [1] and in assay [2] was at least 80% in each case.

As to `Cn1cc(C(C)(CNC(=O)c2nnc(-c3ccc(F)cc3F)s2)c2ncccc2Cl)cn1` (stereo not shown) [Compound P-1, N-[2-(3-chloro-2-pyridyl)-2-(1-methylpyrazol-4-yl)propyl]-5-(2,4-difluorophenyl)-1,3,4-thiadiazole-2-carboxamide], the inhibition of growth at 20 ppm in assay [1], in assay [2] and in assay [3] was at least 80% throughout.
